US20180305332A1, “Bispiperidinyl Derivatives as Liver X Receptor Beta Agonists, Compositions, and Their Use” (Merck Sharp & Dohme Corp., priority 2015, published 2018)

How the values were obtained:
[1] = biological target: T1, GST tagged LXRalpha LBD (ligand binding domain) (Homo sapiens, UniProt Q13133); test: LanthaScreen TR-FRET Liver X Receptor Coactivator Assay, LXR alpha-LBD; type: biochemical; conditions: relative to reference T0901317; for EC50 / LXR alpha IP (nM): Inflection Point (potency), co-activator recruitment; for EC50: read-out: LXR alpha IP; for Emax: read-out: LXR alpha act @ max dose (%)
T1 construct: purchased Invitrogen pv4655
T1 sequence (Q13133 209-447 limits assumed): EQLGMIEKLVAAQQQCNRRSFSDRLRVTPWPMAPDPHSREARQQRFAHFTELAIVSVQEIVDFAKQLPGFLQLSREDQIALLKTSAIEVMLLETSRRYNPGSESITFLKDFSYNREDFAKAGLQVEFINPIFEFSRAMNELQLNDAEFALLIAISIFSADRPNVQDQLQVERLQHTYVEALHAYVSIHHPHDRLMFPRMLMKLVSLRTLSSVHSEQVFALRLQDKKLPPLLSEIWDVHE
Description: (§1) Potency (Inflection Point, IP) and efficacy (Emax) are evaluated via compound-induced co-activator recruitment to glutathione-S-transferase (GST) tagged LXRbeta and LXRalpha LBD (ligand binding domain) proteins in relation to reference dual agonist compound T0901317 (N-(2,2,2-Trifluoroethyl)-N-[4-[2,2,2-trifluoro-1-hydroxy-1-(trifluoromethyl)ethyl] phenyl]benzenesulfonamide) using the LanthaScreen™ TR-FRET Liver X Receptor Coactivator Assays according to manufacturer's instructions (Invitrogen catalog number pv4658.pps and pv4655). While running the LanthaScreen™ TR-FRET Liver X Receptor Coactivator Assay, LXR alpha-LBD or LXR beta-LBD was added to ligand test compounds followed by addition of a mixture of a fluorescein-labelled coactivator peptide and terbium-conjugated anti-GST antibody. After an incubation period at room temperature, TR-FRET (time-resolved fluorescence resonance energy transfer) was measured using a filter-based instrument capable of TR-FRET, e.g. PerkinElmer Envision.

[2] = biological target: T2, GST tagged LXRbeta LBD (ligand binding domain) (Homo sapiens, UniProt P55055); test: LanthaScreen TR-FRET Liver X Receptor Coactivator Assay, LXR beta-LBD; type: biochemical; conditions: relative to reference T0901317; for EC50: Inflection Point (potency), co-activator recruitment, read-out: LXR beta IP; for Emax: read-out: LXR beta act @ max dose (%)
T2 construct: purchased Invitrogen pv4658.pps
T2 sequence (P55055 222-460 limits assumed): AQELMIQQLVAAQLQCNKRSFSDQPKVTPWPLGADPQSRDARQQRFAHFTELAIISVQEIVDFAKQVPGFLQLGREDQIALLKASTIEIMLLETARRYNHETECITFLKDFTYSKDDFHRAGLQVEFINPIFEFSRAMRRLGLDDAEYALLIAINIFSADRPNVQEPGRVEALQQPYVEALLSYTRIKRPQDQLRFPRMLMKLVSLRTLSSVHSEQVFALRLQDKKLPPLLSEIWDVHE
Description: as §1

[3] = activity at max dose (efficacy)

| SMILES | EC50 [1] | Emax [1, 3] | EC50 [2] | Emax [2, 3] | LXR alpha IP (nM) [1] | LXR alpha act @ max dose (%) [1, 3] | LXR beta act @ max dose (%) [2, 3] |
| --- | --- | --- | --- | --- | --- | --- | --- |
| CN(C)C(=O)c1ccc(N2CCC(C3CCN(C(=O)c4c(F)cc(F)cc4F)CC3)CC2)cc1Cl [Example A-37, 2-chloro-N,N-dimethyl-4-{1′-[(2,4,6-trifluorophenyl)carbonyl]-4,4′-bipiperidin-1-yl}benzamide] | 4100 nM | 35% | 274 nM | 93% |  |  |  |
| Cc1ccc(F)c(C(=O)N2CCC(C3CCN(c4ccc(C(=O)N(C)C)c(Cl)c4)CC3)CC2)c1F [Example A-38, 2-chloro-4-{1′-[(2,6-difluoro-3-methylphenyl)carbonyl]-4,4′-bipiperidin-1-yl}-N,N-dimethylbenzamide] | 3450 nM | 22% | 164 nM | 85% |  |  |  |
| CN(C)C(=O)c1ccc(N2CCC(C3CCN(C(=O)C4(c5ccccc5)CC4)CC3)CC2)cc1Cl [Example A-39, 2-chloro-N,N-dimethyl-4-{1′-[(1-phenylcyclopropyl)carbonyl]-4,4′-bipiperidin-1-yl}benzamide] | 5510 nM | 32% | 140 nM | 101% |  |  |  |
| CN(C)C(=O)c1ccc(N2CCC(C3CCN(C(=O)C4(c5ccccc5)CCCC4)CC3)CC2)cc1Cl [Example A-40, 2-chloro-N,N-dimethyl-4-{1′-[(1-phenylcyclopentyl)carbonyl]-4,4′-bipiperidin-1-yl}benzamide] | 940 nM | 41% | 37 nM | 113% |  |  |  |
| CN(C)C(=O)c1ccc(N2CCC(C3CCN(C(=O)C(C)(C)c4ccc(Cl)cc4)CC3)CC2)cc1Cl [Example A-44, 2-chloro-4-{1′-[2-(4-chlorophenyl)-2-methylpropanoyl]-4,4′-bipiperidin-1-yl}-N,N-dimethylbenzamide] | 1980 nM | 22% | 143 nM | 95% |  |  |  |
| CN(C)C(=O)c1ccc(N2CCC(C3CCN(C(=O)C4(c5ccccc5F)CCCC4)CC3)CC2)cc1Cl [Example A-45, 2-chloro-4-(1′-{[1-(2-fluorophenyl)cyclopentyl]carbonyl}-4,4′-bipiperidin-1-yl)-N,N-dimethylbenzamide] | 577 nM | 53% | 11 nM | 108% |  |  |  |
| COc1ccc(C2(C(=O)N3CCC(C4CCN(c5ccc(C(=O)N(C)C)c(Cl)c5)CC4)CC3)CCCC2)cc1 [Example A-46, 2-chloro-4-(1′-{[1-(4-methoxyphenyl)cyclopentyl]carbonyl}-4,4′-bipiperidin-1-yl)-N,N-dimethylbenzamide] |  | 0% | 187 nM | 34% | NO IP |  |  |
| CN(C)C(=O)c1ccc(N2CCC(C3CCN(C(=O)C4(c5ccc(Cl)cc5)CCC4)CC3)CC2)cc1Cl [Example A-47, 2-chloro-4-(1′-{[1-(4-chlorophenyl)cyclobutyl]carbonyl}-4,4′-bipiperidin-1-yl)-N,N-dimethylbenzamide] |  | 4% | 178 nM | 78% | NO IP |  |  |
| COc1ccc(C2(C(=O)N3CCC(C4CCN(c5ccc(C(=O)N(C)C)c(Cl)c5)CC4)CC3)CC2)cc1 [Example A-48, 2-chloro-4-(1′-{[1-(4-methoxyphenyl)cyclopropyl]carbonyl}-4,4′-bipiperidin-1-yl)-N,N-dimethylbenzamide] |  | 0% | 289 nM | 69% | NO IP |  |  |
| CN(C)C(=O)c1ccc(N2CCC(C3CCN(C(=O)C(O)(c4ccccc4)C4CCC4)CC3)CC2)cc1Cl (stereo not drawn) [Example A-51, 2-chloro-4-{1′-[cyclobutyl(hydroxy)phenylacetyl]-4,4′-bipiperidin-1-yl}-N,N-dimethylbenzamide] | 1590 nM | 33% | 128 nM | 109% |  |  |  |
| CN(C)C(=O)c1ccc(N2CCC(C3CCN(C(=O)C(O)(c4ccccc4)C4CC4)CC3)CC2)cc1Cl (stereo not drawn) [Example A-52, 2-chloro-4-{1′-[cyclopropyl(hydroxy)phenylacetyl]-4,4′-bipiperidin-1-yl}-N,N-dimethylbenzamide] | 2070 nM | 22% | 171 nM | 96% |  |  |  |
| C=C(C)CC(O)(C(=O)N1CCC(C2CCN(c3ccc(C(=O)N(C)C)c(Cl)c3)CC2)CC1)C(F)(F)F (stereo not drawn) [Example A-56, 2-chloro-4-{1′-[2-hydroxy-4-methyl-2-(trifluoromethyl)pent-4-enoyl]-4,4′-bipiperidin-1-yl}-N,N-dimethylbenzamide] | 1910 nM | 68% | 64 nM | 120% |  |  |  |

The remaining lines, values ahead:

| EC50 [1] | Emax [1, 3] | EC50 [2] | Emax [2, 3] | LXR alpha IP (nM) [1] | LXR alpha act @ max dose (%) [1, 3] | LXR beta act @ max dose (%) [2, 3] | SMILES |
| --- | --- | --- | --- | --- | --- | --- | --- |
| 217 nM | 59% | 7 nM | 86% |  |  |  | CN(C)C(=O)c1ccc(N2CCC(C3CCN(C(=O)C(O)(C(F)(F)F)C(F)(F)F)CC3)CC2)cc1Cl [Example A-35, 2-chloro-N,N-dimethyl-4-{1′-[3,3,3-trifluoro-2-hydroxy-2-(trifluoromethyl)propanoyl]-4,4′-bipiperidin-1-yl}benzamide] |
| 1800 nM | 27% | 108 nM | 113% |  |  |  | CN(C)C(=O)c1ccc(N2CCC(C3CCN(C(=O)C(O)(c4ccccc4)C(F)(F)F)CC3)CC2)cc1Cl (stereo not drawn) [Example A-36, 2-chloro-N,N-dimethyl-4-[1′-(3,3,3-trifluoro-2-hydroxy-2-phenylpropanoyl)-4,4′-bipiperidin-1-yl]benzamide] |
| 3390 nM | 71% | 84 nM | 112% |  |  |  | CN(C)C(=O)c1ccc(N2CCC(C3CCN(C(=O)C(C)(C)C(F)(F)F)CC3)CC2)cc1Cl [Example A-41, 2-chloro-N,N-dimethyl-4-[1′-(3,3,3-trifluoro-2,2-dimethylpropanoyl)-4,4′-bipiperidin-1-yl]benzamide] |
|  | 16% | 429 nM | 32% | NO IP |  |  | CN(C)C(=O)c1ccc(N2CCC(C3CCN(C(=O)C(O)(CCc4ccccc4)C(F)(F)F)CC3)CC2)cc1Cl (stereo not drawn) [Example A-49, 2-chloro-4-{1′-[2-hydroxy-4-phenyl-2-(trifluoromethyl)butanoyl]-4,4′-bipiperidin-1-yl}-N,N-dimethylbenzamide] |
| 1010 nM | 20% | 93 nM | 99% |  |  |  | CN(C)C(=O)c1ccc(N2CCC(C3CCN(C(=O)C(O)(c4cccc(Cl)c4)C(F)(F)F)CC3)CC2)cc1Cl (stereo not drawn) [Example A-50, 2-chloro-4-{1′-[2-(3-chlorophenyl)-3,3,3-trifluoro-2-hydroxypropanoyl]-4,4′-bipiperidin-1-yl}-N,N-dimethylbenzamide] |
| 3230 nM | 29% | 256 nM | 108% |  |  |  | CN(C)C(=O)c1ccc(N2CCC(C3CCN(C(=O)[C@@](C)(O)c4ccccc4)CC3)CC2)cc1Cl [Example A-53, 2-chloro-4-{1′-[(2S)-2-hydroxy-2-phenylpropanoyl]-4,4′-bipiperidin-1-yl}-N,N-dimethylbenzamide] |
| 827 nM | 15% | 410 nM | 75% |  |  |  | CN(C)C(=O)c1ccc(N2CCC(C3CCN(C(=O)C(O)(c4ccccc4)C(F)(F)C(F)(F)C(F)(F)F)CC3)CC2)cc1Cl (stereo not drawn) [Example A-54, 2-chloro-4-[1′-(3,3,4,4,5,5,5-heptafluoro-2-hydroxy-2-phenylpentanoyl)-4,4′-bipiperidin-1-yl]-N,N-dimethylbenzamide] |
| 1340 nM |  | 408 nM |  |  | 25% | 93% | CN(C)C(=O)c1ccc(N2CCC(C3CCN(C(=O)C(O)(c4ccccc4)C(F)(F)C(F)(F)C(F)(F)F)CC3)CC2)cc1Cl (stereo not drawn) [Example A-55, 2-chloro-4-[1′-(3,3,4,4,5,5,5-heptafluoro-2-hydroxy-2-phenylpentanoyl)-4,4′-bipiperidin-1-yl]-N,N-dimethylbenzamide] |
| 4790 nM | 58% | 311 nM | 112% |  |  |  | C=CCC(O)(C(=O)N1CCC(C2CCN(c3ccc(C(=O)N(C)C)c(Cl)c3)CC2)CC1)C(F)(F)F (stereo not drawn) [Example A-57, 2-chloro-4-{1′-[2-hydroxy-2-(trifluoromethyl)pent-4-enoyl]-4,4′-bipiperidin-1-yl}-N,N-dimethylbenzamide] |
